The first assay concerns the target Hypoxia-inducible factor 1-alpha (Homo sapiens) (UniProt Q16665). As to the kind of experiment: Inhibition of hypoxia-induced HIF1alpha protein reduction in human Hep3B cells by Western blot analysis. Format: cell-based. The following applies: Hep 3B2. In general terms: In western blotting, separated proteins are transferred to a membrane and probed.
Sequence of Hypoxia-inducible factor 1-alpha (Homo sapiens) (Q16665 whole entry, looked up): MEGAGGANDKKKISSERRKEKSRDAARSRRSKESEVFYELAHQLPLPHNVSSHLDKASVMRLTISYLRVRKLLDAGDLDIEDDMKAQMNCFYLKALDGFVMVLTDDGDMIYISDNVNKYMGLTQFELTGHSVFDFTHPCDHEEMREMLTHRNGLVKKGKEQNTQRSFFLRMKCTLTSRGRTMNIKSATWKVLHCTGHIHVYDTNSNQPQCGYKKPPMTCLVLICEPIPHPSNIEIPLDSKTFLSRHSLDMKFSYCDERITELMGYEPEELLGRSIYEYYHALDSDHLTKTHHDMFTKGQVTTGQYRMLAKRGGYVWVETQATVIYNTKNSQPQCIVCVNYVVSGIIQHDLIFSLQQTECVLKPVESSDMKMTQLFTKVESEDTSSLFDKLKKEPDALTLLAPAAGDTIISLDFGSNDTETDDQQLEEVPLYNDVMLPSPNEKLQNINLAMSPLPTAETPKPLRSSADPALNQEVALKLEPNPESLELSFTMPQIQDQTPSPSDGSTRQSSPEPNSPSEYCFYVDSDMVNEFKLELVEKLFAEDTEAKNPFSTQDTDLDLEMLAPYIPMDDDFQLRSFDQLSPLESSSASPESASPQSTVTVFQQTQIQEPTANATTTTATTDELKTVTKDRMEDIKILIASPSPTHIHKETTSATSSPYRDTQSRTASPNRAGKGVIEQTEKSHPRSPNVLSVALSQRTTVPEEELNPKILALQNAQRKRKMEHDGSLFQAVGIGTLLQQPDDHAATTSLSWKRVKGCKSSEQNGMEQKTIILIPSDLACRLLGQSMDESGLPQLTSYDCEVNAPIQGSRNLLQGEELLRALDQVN
On to `CC(C)C(=O)OCc1ccc(-c2nn(Cc3ccccc3)c3ccccc23)o1`, for which the inhibition result is “Dose-dependent effect”.

Biological target in a further assay: not listed separately
The assay is described as follows: Inhibition of hypoxia-induced HIF-1 transcriptional activity by luciferase reporter assay.
Conditions: not given
Regarding `Cn1nc(-c2ccc(CO)o2)c2ccccc21`, it took 8.9 µM to reach half-maximal inhibition (IC50). In other words, the single-digit micromolar range.
Take `CNCc1ccc(-c2nn(C)c3ccccc23)o1`: the half-maximal inhibitory concentration (IC50) (in general, the concentration at which inhibition is half-maximal) came to 7.7 µM.
On to `Cn1nc(-c2ncc(CO)o2)c2ccccc21`, for which the IC50 was greater than 30 µM.
Consider `CC(=O)NCc1ccc(-c2nn(C)c3ccccc23)o1`, for which half-maximal inhibition (IC50) was put at 13.4 µM.
The molecule `CC(C)(C)C(=O)OCc1ccc(-c2nn(Cc3ccccc3)c3ccccc23)o1` gave an IC50 of 0.89 µM.
Molecule `OCc1coc(-c2nn(Cc3ccccc3)c3ccccc23)n1` displayed an IC50 greater than 30 µM.
`OCc1cnc(-c2nn(Cc3ccccc3)c3ccccc23)o1`: the IC50 was greater than 30 µM.
`CC(C)C(=O)OCc1ccc(-c2nn(Cc3ccccc3)c3ccccc23)o1` registered a half-inhibitory concentration (IC50) of 0.74 µM. In other words, the sub-micromolar range.
Same read-out and setting: the result for `Cn1nc(-c2ccc(CN=[N+]=[N-])o2)c2ccccc21` reads greater than 30 µM; that for `OCc1cnc(-c2nn(Cc3ccccc3)c3ccccc23)s1`, greater than 30 µM; that for `Cn1nc(-c2cc(CO)no2)c2ccccc21`, greater than 30 µM.
Take `Cn1nc(-c2ccc(CN3CCOCC3)o2)c2ccccc21`: half-maximal inhibition (IC50) was put at 1.9 µM.
In turn, `COC(=O)c1ccc(-c2nn(Cc3ccccc3)c3ccccc23)o1` returned a half-maximal inhibitory concentration (IC50) of 0.9 µM.
For the molecule `CN(C)Cc1ccc(-c2nn(C)c3ccccc23)o1`, the IC50 worked out at 8.5 µM.
Regarding `Cn1nc(-c2nc(CO)co2)c2ccccc21`, the IC50 was greater than 30 µM.
Take `CC(=O)OCc1ccc(-c2nn(C)c3ccccc23)o1`: the IC50 worked out at 16.9 µM.
The same measure, in the same setting: the result for `Cn1nc(-c2ccc(CN3CCCCC3)o2)c2ccccc21` reads 2 µM.
Same read-out and setting: as for `[N-]=[N+]=NCc1ccc(-c2nn(Cc3ccccc3)c3ccccc23)o1`, the figure is greater than 30 µM.
The molecule `OCC1CN=C(c2nn(Cc3ccccc3)c3ccccc23)O1` (stereo not drawn) returned an IC50 greater than 30 µM.
As for `Cn1nc(-c2ncc(CO)s2)c2ccccc21`, the half-maximal inhibitory concentration (IC50) is greater than 30 µM.
In the case of `CC(=O)OCc1ccc(-c2nn(Cc3ccccc3)c3ccccc23)o1`, the IC50 came out at 2.3 µM.
As for `OCc1ccc(-c2nn(Cc3ccccc3)c3ccccc23)o1`, the IC50 worked out at 1.2 µM.
Turning to `O=S(=O)(c1ccccc1)n1nc(-c2ccc(CO)o2)c2ccccc21`, the concentration for half-maximal inhibition (IC50) turned out to be 1.3 µM.
On the same count and under the same terms, the result for `OCc1ccc(-c2[nH]nc3ccccc23)o1` reads 5 µM; that for `Cn1nc(-c2ccc(CN)o2)c2ccccc21`, greater than 30 µM.
In the case of `NC(=O)c1ccc(-c2nn(Cc3ccccc3)c3ccccc23)o1`, 11.9 µM corresponded to half-maximal inhibition (IC50).
Regarding `OCc1cc(-c2nn(Cc3ccccc3)c3ccccc23)on1`, half-maximal inhibition (IC50) was put at 23.9 µM.

Values taken from ChEMBL document CHEMBL1926629, “Design, synthesis and insight into the structure-activity relationship of 1,3-disubstituted indazoles as novel HIF-1 inhibitors” (Bioorg Med Chem Lett, 2011).
